In patent publication US20220211603A1, “Oral Compositions And Methods Of Use” (3M INNOVATIVE PROPERTIES COMPANY, priority 2019, published 2022):

Tested on: Streptococcus mutans (ATCC 25175) biofilm
Assay: MBEC Biofilm Disruption Assay
Format: cell-based
Settings: glucosamine HCl combined with MEGA-9 in water
Description: In some embodiments, disclosed compositions can prevent, inhibit, disrupt the formation or maintenance of a biofilm in an area contacted with the composition. The area contacted can be in vivo or in vitro. In some embodiments, a composition can prevent, inhibit, disrupt the formation or maintenance of a biofilm in a mouth of a user where the composition was applied to the mouth, for example via spraying the composition into the mouth when compared to a mouth without the composition applied thereto. […] Preventing, inhibiting, disrupting, or some combination thereof the formation or maintenance of biofilms can be measured using a modified version of the MBEC assay (described in ASTM […]-12), which measures disruption of Streptococcus mutans biofilms grown on special pegs in a microtiter plate. […] The biofilm remaining on each peg following treatment is quantified by measuring the amount of fluorescently labeled bacteria that eluted from the pegs at the end of the treatment cycles (see example). […] Decreasing plaque buildup can be measured by a variety of methods in vivo including for example plaque scoring, dyeing of plaque, etc. […] Control wells for fluorescence readings were also filled with 150 microliter of phosphate-buffered saline (PBS) or non-bacteria-containing media consisting of BHI with 1% sucrose and 1 micromolar ALEXA FLUOR 488 dextran. […]

Compound: Cl.N[C@H]1C(O)O[C@H](CO)[C@@H](O)[C@@H]1O (stereo partly shown) [Glucosamine HCl]
- effect on biofilm disruption of MEGA-9 (in words): enhanced the biofilm disruption effect of MEGA-9
